Source: patent US6943026B1, “Antitumour vector constructs and methods” (Cyclacel Limited, priority 1995, dated 2005)

System: Saos-2 cells
Test: GCV tolerance (toxicity of GCV alone to cells)
Type: cell-based, human
Details: 1.25×10^−5-6.2×10^−5M
Procedure: The GCV tolerance profile of Saos-2 cells was determined in parallel by treating the cells with various concentrations of GCV (ranging from 0.1 μmole to 2 mM).
The toxicity of the GCV to cells were analysed by subjecting the cells to various concentration of GCV (ranging from 0.1 μmole to 2 mM GCV at 37° C.) for 3 days. The remaining steps of the treatment were carried out as the tk-GCV assay.

## Nc1nc(O)c2ncn(COC(CO)CO)c2n1 [Gancyclovir, Ganciclovir]
  effect on cell viability of gancyclovir by itself: no effect
